“And” between values parts separate entries of the source, which are not always exact repeats. Identical values can stand only once. Like-named read-outs stand apart in the source and are kept apart here.
What was measured:
BetX with CbcWV = target: T1, BetX with CbcWV (Pseudomonas aeruginosa, UniProt Q9HZ04); assay: Competitive uptake, MKH13 expressing cbcWV and betX; assay type: cell-based; settings: pNcbcWV, pT-PA3236, SBP BetX, [^14C]betaine 10 μM, competitor 1 mM
T1 sequence (Q9HZ04 26-285): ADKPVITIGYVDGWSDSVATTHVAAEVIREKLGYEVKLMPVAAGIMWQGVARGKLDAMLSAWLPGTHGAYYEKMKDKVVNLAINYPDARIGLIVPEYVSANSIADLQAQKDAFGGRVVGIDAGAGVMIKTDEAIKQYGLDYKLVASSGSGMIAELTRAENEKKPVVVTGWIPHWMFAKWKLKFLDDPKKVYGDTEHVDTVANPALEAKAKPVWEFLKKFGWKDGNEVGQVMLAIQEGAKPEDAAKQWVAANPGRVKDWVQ
T1 sequence (Q9HTI7 1-279 partner): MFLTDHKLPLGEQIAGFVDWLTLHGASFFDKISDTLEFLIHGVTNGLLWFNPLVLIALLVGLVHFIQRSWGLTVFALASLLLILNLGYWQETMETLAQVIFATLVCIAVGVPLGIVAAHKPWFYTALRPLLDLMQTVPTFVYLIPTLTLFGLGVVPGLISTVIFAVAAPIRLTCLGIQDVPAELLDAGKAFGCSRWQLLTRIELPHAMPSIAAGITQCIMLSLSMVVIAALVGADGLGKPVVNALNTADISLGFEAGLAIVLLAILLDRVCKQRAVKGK
T1 sequence (Q9HTI8 1-392 partner): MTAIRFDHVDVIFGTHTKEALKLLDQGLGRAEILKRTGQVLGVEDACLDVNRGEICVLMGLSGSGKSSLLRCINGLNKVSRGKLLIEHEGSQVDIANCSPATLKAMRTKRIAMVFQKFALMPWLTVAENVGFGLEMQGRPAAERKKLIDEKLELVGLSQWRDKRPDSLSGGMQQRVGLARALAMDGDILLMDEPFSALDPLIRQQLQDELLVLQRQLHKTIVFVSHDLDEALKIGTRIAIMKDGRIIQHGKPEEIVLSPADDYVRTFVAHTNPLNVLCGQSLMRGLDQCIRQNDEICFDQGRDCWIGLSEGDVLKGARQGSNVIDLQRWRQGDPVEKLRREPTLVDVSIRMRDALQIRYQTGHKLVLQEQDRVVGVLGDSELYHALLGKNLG

CbcX and CaiX with CbcWV = assay type: cell-based, Pseudomonas aeruginosa; settings: MKH13, pNcbcXWV, pT-PA5388, SBPs CbcX/CaiX, competitor 1 mM
CbcX with CbcWV = CbcX with CbcWV (Pseudomonas aeruginosa, UniProt Q9HTI6); assay: Competitive uptake, MKH13 expressing cbcXWV; assay type: cell-based
CaiX with CbcWV = assay type: cell-based, Pseudomonas aeruginosa; settings: MKH13; pNcbcWV, pT-PA5388; SBP CaiX; [^14C]carnitine 10 μM; competitor 1 mM
ChoXWV = target: T2, ChoXWV (Sinorhizobium meliloti, UniProt Q92N37); assay: Competitive uptake, MKH13 expressing choXWV; assay type: cell-based; settings: pNchoXWV, SBP ChoX, [^14C]choline 10 μM, competitor 1 mM
T2 sequence (Q92N37 28-318): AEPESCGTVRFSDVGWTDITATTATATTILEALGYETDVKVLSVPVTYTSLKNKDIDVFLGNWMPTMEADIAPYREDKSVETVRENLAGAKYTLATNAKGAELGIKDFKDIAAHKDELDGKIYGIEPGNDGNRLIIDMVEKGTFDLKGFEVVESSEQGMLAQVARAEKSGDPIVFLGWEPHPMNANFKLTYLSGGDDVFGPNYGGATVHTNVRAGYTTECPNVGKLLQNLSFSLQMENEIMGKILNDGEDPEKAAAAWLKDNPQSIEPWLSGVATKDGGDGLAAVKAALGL
T2 sequence (Q92N36 1-281 partner): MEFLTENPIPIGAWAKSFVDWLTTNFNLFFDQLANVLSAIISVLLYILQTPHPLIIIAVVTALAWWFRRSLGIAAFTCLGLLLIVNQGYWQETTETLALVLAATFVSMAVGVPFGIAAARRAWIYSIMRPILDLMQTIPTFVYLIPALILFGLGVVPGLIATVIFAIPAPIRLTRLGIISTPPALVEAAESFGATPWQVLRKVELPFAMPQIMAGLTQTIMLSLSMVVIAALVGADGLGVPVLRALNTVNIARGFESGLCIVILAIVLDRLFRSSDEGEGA
T2 sequence (Q92N35 1-349 partner): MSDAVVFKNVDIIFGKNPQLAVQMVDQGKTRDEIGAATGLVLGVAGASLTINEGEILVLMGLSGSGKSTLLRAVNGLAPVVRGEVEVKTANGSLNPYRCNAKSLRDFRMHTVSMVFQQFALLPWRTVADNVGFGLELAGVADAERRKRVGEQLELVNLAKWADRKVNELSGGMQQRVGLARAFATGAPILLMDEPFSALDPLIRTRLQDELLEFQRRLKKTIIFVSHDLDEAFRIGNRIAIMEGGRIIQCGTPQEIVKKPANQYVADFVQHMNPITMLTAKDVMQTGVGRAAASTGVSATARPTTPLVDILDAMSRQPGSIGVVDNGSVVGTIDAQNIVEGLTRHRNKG

[1] = substrate: C[N+](C)(C)C[C@H](O)CC(=O)[O-]; assay: cells, lysate or membranes; settings: other: PA5378::tn, pNcbcWV; SBP CaiXPAO1; mean (SE), n = 4
[2] = substrate: C[N+](C)(C)CCO; assay: cells, lysate or membranes; settings: mean (SE), n = 4
[3] = substrate: C[N+](C)(C)CC(=O)O; assay: cells, lysate or membranes; settings: mean (SE), n = 4
[4] = other: MKH13, pNcbcXWV, SBP CbcX, Michaelis–Menten fit

With `CN(C)CC(=O)O` [DM, dimethylglycine] the “% inhibition of uptake of substrate by unlabelled competitor” value (“% inhibition of uptake of substrate” for short) (BetX with CbcWV) was 56%, the “% inhibition of uptake of substrate” value (CbcX and CaiX with CbcWV; [^14C]betaine 10 μM) was −4% and the “% inhibition of uptake of substrate” value (CbcX and CaiX with CbcWV; [^14C]choline 10 μM) was −8%. For the same molecule, the “% inhibition of uptake of substrate” value (CbcX with CbcWV) was 4%, the “% inhibition of uptake of substrate” value (CbcX with CbcWV; MKH13, pNcbcXWV, SBP CbcX, [^14C]betaine 10 μM, competitor 1 mM) was −5% and the “% inhibition of uptake of substrate” value (CaiX with CbcWV) was 2%.

In the case of `C[N+](C)(C)CCOP(=O)(O)O` [PC, phosphorylcholine], the “% inhibition of uptake of substrate” value (ChoXWV) is reported as 5% and the “% inhibition of uptake of substrate” value (CbcX with CbcWV; MKH13, pNcbcXWV, SBP CbcX, [^14C]choline 10 μM, competitor 1 mM) is reported as 1%.

With `CNCC(=O)O` [MM, monomethylglycine] the “% inhibition of uptake of substrate” value (BetX with CbcWV) was −13%, the “% inhibition of uptake of substrate” value (CbcX and CaiX with CbcWV; [^14C]betaine 10 μM) was 3% and the “% inhibition of uptake of substrate” value (CbcX and CaiX with CbcWV; [^14C]choline 10 μM) was 2%. The “% inhibition of uptake of substrate” value (ChoXWV) was −4%, the “% inhibition of uptake of substrate” value (CbcX with CbcWV) was −3% and 2% and the “% inhibition of uptake of substrate” value (CaiX with CbcWV) was 0%.

`CC(=O)OCC[N+](C)(C)C` [AC, acetylcholine] was tested, and the “% inhibition of uptake of substrate” value (ChoXWV) was 88%.

B1: CbcWV-CaiX (Pseudomonas aeruginosa PAO1) (protein)
chain: AEPEQCRTVRLGTVNWTDVVASSAVAEALLDGLGYQVKQTSASQQIVLAGLADKQLDLFLGYWQPTMQPVARPYLDKGRIEVIEPPTLADAQSTYAVPSYVAEGGLKTFADIARFKDKLGGRIYAIEPGSGSNRITRKMIDDNRFGLKGFQLVESSEAGMLTAVKRAIKRKQWVVFFGWKPHPMNLQIDMTYLTGSEDVFGPDEGAATVSTMTAAGYQAQCGNVARLLHNLRFSSAQVSQVMAPILDRTQPLDAARQWLKANPEPLKAWLDGVSTFDGKDGLAALQASLK
B1 was tested, and the Km [1] was 24 μM and 24.2 (8.3) μM.

B2: CbcX with CbcWV (Pseudomonas aeruginosa PAO1) (protein)
chain: AEPESCASVRFADVGWTDITVTTAVTRQVLESLGYKTKVNLLSVPVTYRSLANNDLDVFLGNWMPTMTNDIKQYAEKGTVETLRANLEGAKYTLAVPQYVYDGGLRSFADIAKFSDKLGNKIYGIEPGNDGNRVAQSMIDKNAFELGKFKLVESSEAGMLSQVQRAIRRNQWVVFLGWEPHPMNTRFQMKYLEGGDDFFGPNYGGATIYTNVRKGYAQECANVGQLLKNLSFTLEMENKLMDAVLNENKKPEEAAKAWLKDHPEQLDAWLAGVTTRDGQPAAAAAKLAFAK
With B2 the Km [2, 4] was 2.6 (0.66) μM, the Km [3, 4] was 24.2 (2.4) μM and the Vmax [3, 4] was 11.6 (0.6) nmol min^-1.

B3: ChoXWV (Sinorhizobium meliloti 1021) (protein)
chain: T2 sequence (Q92N37 28-318)
B3 was tested, and the Km ([2]; other: MKH13, pNchoXWV, SBP ChoX) was 1.8 (0.36) μM.

B4: BetX with CbcWV (Pseudomonas aeruginosa PAO1) (protein)
chain: T1 sequence (Q9HZ04 26-285)
B4 was tested, and the Km ([3]; other: MKH13, pNcbcWV + pTPA3236, SBP BetX) was 0.6 (0.16) μM.

Source: PMC5503199 (Molecular microbiology, 2009)
